Results as given in ChEMBL document CHEMBL1201862, “PubChem BioAssay data set” (2004).
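These data come from cells grown in 96-well plates and exposed to compound for 48 hours at five concentrations. GI50 = concentration required for 50% inhibition of growth.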 Activity calls are given as the source filed them. Cut-off read from the data, not from the text of the source: active = GI50 up to about 1.1 µM and inactive = higher. Peptide text beside a SMILES is read from it. * marks the point of attachment. Cbz = O=C(OCc1ccccc1)*; CH2Cl = ClC*

Key:
Experiment in all cases: DTP human tumour cell line panel, 48 h
[1] = system: UACC-257
[2] = system: NCI-H226
[3] = system: Hs-578T
[4] = system: OVCAR-5
[5] = system: HCT-15
[6] = system: SR
[7] = system: 786-0
[8] = system: HOP-62
[9] = system: OVCAR-8
[10] = system: SN12C
[11] = system: CAKI-1
[12] = system: MDA-MB-435
[13] = system: COLO 205
[14] = system: U-251
[15] = system: SK-MEL-2
[16] = system: Malme-3M
[17] = system: NCI-H460
[18] = system: KM12
[19] = system: SK-MEL-5
[20] = system: M14

Measured: GI50

Cc1ccc(C2NC(=O)c3ccccc3N2)c(C)c1 (stereo not given)
active: [6] 807 nM | [12] 0.191 µM | [19] 951 nM
1080 nM: [5]
inactive: [1] 6 µM | [2] 6.1 µM | [3] 2.4 µM | [4] 8.43 µM | [7] 3.97 µM | [8] 5.13 µM | [9] 5.28 µM | [10] 6.9 µM | [11] 2.56 µM | [13] 2.11 µM | [14] 2.59 µM | [15] 1.77 µM | [16] 1.69 µM | [17] 3.07 µM | [18] 3.21 µM | [20] 2.16 µM

COC(=O)CNC(=O)CCC(C)[C@H]1CCC2C3C(C[C@H](OC(C)=O)[C@@]21C)[C@@]1(C)CCC2(C[C@H]1C[C@H]3OC(C)=O)OOC1(CC[C@]3(C)C4C[C@H](OC(C)=O)[C@@]5(C)C(CC[C@@H]5C(C)CCC(=O)NCC(=O)OC)C4[C@H](OC(C)=O)C[C@@H]3C1)OO2 (stereo not given in full)
1330 nM: [5]
active: [2] 1.12 µM | [3] 0.938 µM | [6] 381 nM | [7] 0.76 µM | [8] 0.746 µM | [9] 0.746 µM | [10] 0.802 µM | [13] 0.875 µM | [15] 0.764 µM | [16] 0.782 µM | [19] 940 nM
inactive: [1] 1.14 µM | [4] 2.03 µM | [11] 2.15 µM | [12] 2.3 µM | [14] 3.78 µM | [17] 2.07 µM | [18] 3.98 µM | [20] 1.37 µM

CC(C)CC(NC(=O)OCc1ccccc1)C(=O)NC(Cc1ccccc1)C(=O)CCl (stereo not drawn) (Cbz-Leu-Phe-CH2Cl; configuration not given here)
active: [6] 501 nM
inactive: [1] 4 µM | [2] 1.91 µM | [3] 4.62 µM | [4] 3.71 µM | [7] 1.66 µM | [8] 16.1 µM | [9] 2.08 µM | [10] 1.77 µM | [11] 5.14 µM | [12] 2.34 µM | [13] 2.93 µM | [14] 8.38 µM | [15] 2.05 µM | [16] 1.92 µM | [17] 6.5 µM | [18] 9.77 µM | [19] 1820 nM | [20] 1.79 µM
1660 nM: [5]

Cc1cc2cc3cc(C)c(N)cc3nc2cc1N [ACRIDINE YELLOW]
597 nM: [5]
active: [2] 0.869 µM | [4] 0.798 µM | [6] 209 nM | [7] 0.416 µM | [8] 0.465 µM | [9] 0.518 µM | [10] 0.448 µM | [11] 0.791 µM | [13] 0.757 µM | [14] 0.863 µM | [17] 0.358 µM | [18] 0.508 µM
inactive: [1] 3.85 µM | [3] 1.75 µM | [12] 4.4 µM | [15] 3.88 µM | [16] 1.26 µM | [19] 2270 nM | [20] 3.53 µM
